These are literature values, as cited in patent US20240279190A1, “COMPOUNDS FOR MODULATING PLATELET-TYPE 12-(S)-LIPOXYGENASE AND METHODS OF USE FOR SAME” (The Regents of The University of California, priority 2021, published 2024).

This series has as its system human islets. To be noted: 10 μM; different batches of human islets; cited from earlier work.

In the case of ML355, the “GSIS effect in a similar experiment” value is “comparable results were observed”.
